Results reported in patent US20230002359A1, “PESTICIDALLY ACTIVE FUSED BICYCLIC HETEROAROMATIC COMPOUNDS” (priority 2019, published 2023).
Like-named read-outs stand apart in the source and are kept apart here.

Experiments:
Format in all cases: in vivo
[1] = system: Diabrotica Balteata (Corn Root Worm); experiment: Example B1: Diabrotica balteata (corn root worm), maize sprouts sprayed, L2 larvae; details: 96 h, application rate of 200 ppm, 4 days after infestation, L2 larvae, read-out: control in at least one of the two categories (mortality or growth inhibition)
Protocol: Maize sprouts placed onto an agar layer in 24-well microtiter plates were treated with aqueous test solutions prepared from 10′000 ppm DMSO stock solutions by spraying. After drying, the plates were infested with L2 larvae (6 to 10 per well). The samples were assessed for mortality and growth inhibition in comparison to untreated samples 4 days after infestation.

[2] = system: Plutella xylostella (Diamond Back Moth); experiment: Example B4: Plutella xylostella (diamond back moth), artificial diet, eggs, 24-well; details: 192 h, read-out: control in at least one of the two categories (mortality or growth inhibition)
Protocol: 24-well microtiter plates with artificial diet were treated with aqueous test solutions prepared from 10′000 ppm DMSO stock solutions by pipetting. After drying, Plutella eggs were pipetted through a plastic stencil onto a gel blotting paper and the plate was closed with it. The samples were assessed for mortality and growth inhibition in comparison to untreated samples 8 days after infestation.

[3] = system: Chilo suppressalis (Striped Rice Stemborer); experiment: Example B3: Chilo suppressalis (striped rice stemborer), artificial diet, L2 larvae; details: 144 h, read-out: control in at least one of the three categories (mortality, anti-feedant effect, or growth inhibition)
Protocol: 24-well microtiter plates with artificial diet were treated with aqueous test solutions prepared from 10′000 ppm DMSO stock solutions by pipetting. After drying, the plates were infested with L2 larvae (6-8 per well). The samples were assessed for mortality, anti-feeding effect, and growth inhibition in comparison to untreated samples 6 days after infestation. Control of Chilo suppressalis by a test sample is given when at least one of the categories mortality, anti-feedant effect, and growth inhibition is higher than the untreated sample.

[4] = application rate of 200 ppm, 8 days after infestation, eggs
[5] = application rate of 200 ppm, 6 days after infestation, L2 larvae

Compound | percent control (mortality or growth inhibition) at 200 ppm [1] | percent control (mortality or growth inhibition) at 200 ppm [2, 4] | percent control (mortality, anti-feedant effect or growth inhibition) at 200 ppm [3, 5] | percent control (mortality, anti-feedant effect or growth inhibition) at 200 ppm [3] | percent control (mortality or growth inhibition) at 200 ppm [2]
CC(Nc1ncnc2c(C(F)(F)F)cc(C(F)(F)F)cc12)c1ncnn1-c1ccc(Br)cn1 (stereo not shown) [P.268, N-[1-[2-(5-bromo-2-pyridyl)-1,2,4-triazol-3-yl]ethyl]-6,8-bis(trifluoromethyl)quina-zolin-4-amine] | ≥ 80% | ≥ 80% | – | – | –
CC(Nc1ncnc2c(C(F)(F)F)cc(C(F)(F)F)cc12)c1ncnn1-c1ccc(OC(F)F)cn1 (stereo not shown) [P.193, N-[1-[2-[5-(difluoromethoxy)-2-pyridyl]-1,2,4-triazol-3-yl]ethyl]-6,8-bis(trifluoromethyl)quina-zolin-4-amine] | ≥ 80% | ≥ 80% | ≥ 80% | – | –
CC(Nc1ncnc2c(C(F)(F)F)cc(C(F)(F)F)cc12)c1ncnn1-c1ccc(F)cn1 (stereo not shown) [P.233, N-[1-[2-(5-fluoro-2-pyridyl)-1,2,4-triazol-3-yl]ethyl]-6,8-bis(trifluoromethyl)quina-zolin-4-amine] | – | ≥ 80% | – | – | –
CC(Nc1ncnc2c(C(F)(F)F)cc(C(F)(F)F)cc12)c1ncnn1-c1ncc(Br)cn1 (stereo not shown) [P.92, N-[1-[2-(5-bromopyrimidin-2-yl)-1,2,4-triazol-3-yl]ethyl]-6,8-bis(trifluoromethyl)quina-zolin-4-amine] | ≥ 80% | ≥ 80% | ≥ 80% | – | –
CC(Nc1ncnc2c(Br)cc(C(F)(F)F)cc12)c1ncnn1-c1ccc(F)cn1 (stereo not shown) [P.186, 8-bromo-N-[1-[2-(5-fluoro-2-pyridyl)-1,2,4-triazol-3-yl]ethyl]-6-(trifluoromethyl)quinazolin-4-amine] | ≥ 80% | ≥ 80% | ≥ 80% | – | –
CC(c1nccnc1-c1ccc(C#N)cn1)N(CC1CC1)c1ncnc2c(Cl)cc(C(F)(F)F)cc12 (stereo not shown) [P.72, 6-[3-[1-[[8-chloro-6-(trifluoromethyl)quinazolin-4-yl]-(cyclopropylmethyl)amino]ethyl]pyrazin-2-yl]pyridine-3-carbonitrile] | ≥ 80% | ≥ 80% | ≥ 80% | – | –
CC(c1nccnc1-c1ccc(C#N)cn1)N(CC1CC1)c1ncnc2c(Br)cc(C(F)(F)F)cc12 (stereo not shown) [P.73, 6-[3-[1-[[8-bromo-6-(trifluoromethyl)quinazolin-4-yl]-(cyclopropylmethyl)amino]ethyl]pyrazin-2-yl]pyridine-3-carbonitrile] | ≥ 80% | ≥ 80% | ≥ 80% | – | –
CC(Nc1ccnc2c(C(F)(F)F)cc(C(F)(F)F)cc12)c1nccnc1-c1ncccn1 (stereo not shown) [P.85, N-[1-(3-pyrimidin-2-ylpyrazin-2-yl)ethyl]-6,8-bis(trifluoromethyl)quino-lin-4-amine] | ≥ 80% | ≥ 80% | ≥ 80% | – | –
C[C@@H](c1ncnn1-c1ncccn1)N(C)c1c(Cl)cnc2c(C(F)(F)F)cc(C(F)(F)F)cc12 [P.181, 3-chloro-N-methyl-N-[(1S)-1-(2-pyrimidin-2-yl-1,2,4-triazol-3-yl)ethyl]-6,8-bis(trifluoromethyl)quinolin-4-amine] | ≥ 80% | ≥ 80% | – | – | –
CC(c1nccnc1-c1ncccn1)N(CC1CC1)c1ncnc2c(Cl)cc(C(F)(F)F)cc12 (stereo not shown) [P.81, 8-chloro-N-(cyclopropylmethyl)-N-[1-(3-pyrimidin-2-ylpyrazin-2-yl)ethyl]-6-(trifluoromethyl)quinazolin-4-amine] | ≥ 80% | ≥ 80% | ≥ 80% | – | –
CC(Nc1ncnc2c(Br)cc(Cl)cc12)c1ncnn1-c1ccc(C#N)cn1 (stereo not shown) [P.158, 6-[5-[1-[(8-bromo-6-chloro-quinazolin-4-yl)amino]ethyl]-1,2,4-triazol-1-yl]pyridine-3-carbonitrile] | – | ≥ 80% | ≥ 80% | – | –
CC(c1nccnc1-c1ncccn1)N(CC1CC1)c1ncnc2c(C(F)(F)F)cc(Br)cc12 (stereo not shown) [P.80, 6-bromo-N-(cyclopropylmethyl)-N-[1-(3-pyrimidin-2-ylpyrazin-2-yl)ethyl]-8-(trifluoromethyl)quinazolin-4-amine] | ≥ 80% | ≥ 80% | ≥ 80% | – | –
CC(Nc1nccc2c(C(F)(F)F)cc(C(F)(F)F)cc12)c1ncnn1-c1ccc(C#N)cn1 (stereo not shown) [P.210, 6-[5-[1-[[5,7-bis(trifluoromethyl)-1-isoquinolyl]amino]ethyl]-1,2,4-triazol-1-yl]pyridine-3-carbonitrile] | ≥ 80% | ≥ 80% | – | – | –
CC(Nc1ncnc2c(Cl)cc(C(F)(F)F)cc12)c1ncnn1-c1ccc(Br)cn1 (stereo not shown) [P.267, N-[1-[2-(5-bromo-2-pyridyl)-1,2,4-triazol-3-yl]ethyl]-8-chloro-6-(trifluoromethyl)quinazolin-4-amine] | – | – | ≥ 80% | – | –
COC(=O)N(c1ncnc2c(C(F)(F)F)cc(C(F)(F)F)cc12)C(C)c1ncnn1-c1ccc(C#N)cn1 (stereo not shown) [P.167, methyl N-[6,8-bis(trifluoromethyl)quina-zolin-4-yl]-N-[1-[2-(5-cyano-2-pyridyl)-1,2,4-triazol-3-yl]ethyl]carbamate] | – | – | – | ≥ 80% | ≥ 80%
CC(c1nccnc1-c1ccc(Br)cn1)N(C)c1ncnc2c(C(F)(F)F)cc(Br)cc12 (stereo not shown) [P.196, 6-bromo-N-[1-[3-(5-bromo-2-pyridyl)pyrazin-2-yl]ethyl]-N-methyl-8-(trifluoromethyl)quinazolin-4-amine] | ≥ 80% | – | – | – | –
C[C@@H](c1ncnn1-c1ccc(C#N)cn1)N(C)c1ncnc2c(C(F)(F)F)cc(C(=O)C3CC3)cc12 [P.170, 6-[5-[(1S)-1-[[6-(cyclopropanecarbonyl)-8-(trifluoromethyl)quinazolin-4-yl]-methyl-amino]ethyl]-1,2,4-triazol-1-yl]pyridine-3-carbonitrile] | – | ≥ 80% | ≥ 80% | – | –
CC(Nc1ncnc2c(C(F)(F)F)cc(Br)cc12)c1nccnc1-c1ccc(Br)cn1 (stereo not shown) [P.198, 6-bromo-N-[1-[3-(5-bromo-2-pyridyl)pyrazin-2-yl]ethyl]-8-(trifluoromethyl)quinazolin-4-amine] | – | ≥ 80% | ≥ 80% | – | –
CC(Nc1nc(Cl)nc2c(Cl)cc(C(F)(F)F)cc12)c1ncnn1-c1ncccn1 (stereo not shown) [P.48, 2,8-dichloro-N-[1-(2-pyrimidin-2-yl-1,2,4-triazol-3-yl)ethyl]-6-(trifluoromethyl)quinazolin-4-amine] | – | – | ≥ 80% | – | –
CC(Nc1nc(Cl)nc2c(Br)cc(C(F)(F)F)cc12)c1ncnn1-c1ncccn1 (stereo not shown) [P.51, 8-bromo-2-chloro-N-[1-(2-pyrimidin-2-yl-1,2,4-triazol-3-yl)ethyl]-6-(trifluoromethyl)quinazolin-4-amine] | – | – | ≥ 80% | – | –
